Assay results taken from PubChem BioAssay (NCI).
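Five concentrations, 48 hours, 96-well plates. GI50 marks 50% less growth. The concentration for full growth arrest is given as TGI.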

Legend:
Assay in all cases: NCI-60 cell line screen, 48 h
SK-MEL-2 melanoma = system: SK-MEL-2 melanoma
BT-549 breast = system: BT-549 breast
A549 NSCLC = system: A549 NSCLC
KM12 colon = system: KM12 colon
SNB-75 CNS = system: SNB-75 CNS
SK-MEL-5 melanoma = system: SK-MEL-5 melanoma
MOLT-4 leukemia = system: MOLT-4 leukemia
OVCAR-4 ovarian = system: OVCAR-4 ovarian
OVCAR-5 ovarian = system: OVCAR-5 ovarian
HCC-2998 colon = system: HCC-2998 colon
HS 578T breast = system: HS 578T breast
SK-OV-3 ovarian = system: SK-OV-3 ovarian
HOP-62 NSCLC = system: HOP-62 NSCLC
CCRF-CEM leukemia = system: CCRF-CEM leukemia
TK-10 renal = system: TK-10 renal
HL-60(TB) leukemia = system: HL-60(TB) leukemia
MDA-MB-435 = system: MDA-MB-435
OVCAR-3 ovarian = system: OVCAR-3 ovarian
CAKI-1 renal = system: CAKI-1 renal
ACHN renal = system: ACHN renal
NCI-H226 lung = system: NCI-H226 lung
IGROV1 ovarian = system: IGROV1 ovarian
MCF7 breast = system: MCF7 breast
M14 melanoma = system: M14 melanoma
DU-145 prostate = system: DU-145 prostate
HCT-15 colon = system: HCT-15 colon
HT29 colon = system: HT29 colon
U251 CNS = system: U251 CNS
T-47D breast = system: T-47D breast
UACC-62 melanoma = system: UACC-62 melanoma
HCT-116 colon = system: HCT-116 colon
PC-3 prostate = system: PC-3 prostate
MALME-3M melanoma = system: MALME-3M melanoma
A498 renal = system: A498 renal
SF-539 CNS = system: SF-539 CNS
SN12C renal = system: SN12C renal
SF-268 CNS = system: SF-268 CNS
NCI/ADR-RES ovarian = system: NCI/ADR-RES ovarian
SW-620 colon = system: SW-620 colon
SK-MEL-28 melanoma = system: SK-MEL-28 melanoma
UACC-257 melanoma = system: UACC-257 melanoma
OVCAR-8 ovarian = system: OVCAR-8 ovarian
LOX IMVI melanoma = system: LOX IMVI melanoma
SF-295 CNS = system: SF-295 CNS
EKVX NSCLC = system: EKVX NSCLC
COLO 205 colon = system: COLO 205 colon
NCI-H460 lung = system: NCI-H460 lung
786-0 renal = system: 786-0 renal
K-562 leukemia = system: K-562 leukemia
UO-31 renal = system: UO-31 renal
MDA-MB-231 breast = system: MDA-MB-231 breast
SNB-19 CNS = system: SNB-19 CNS
NCI-H522 lung = system: NCI-H522 lung
RXF 393 renal = system: RXF 393 renal
NCI-H23 lung = system: NCI-H23 lung
RPMI-8226 leukemia = system: RPMI-8226 leukemia
HOP-92 NSCLC = system: HOP-92 NSCLC

## CN(C)CCNc1c2ccccc2nc2oc3ccccc3c12
SK-MEL-2 melanoma
  GI50: 12.2 µM
  TGI: 31.4 µM
BT-549 breast
  GI50: 5.67 µM
  TGI: 18.4 µM
A549 NSCLC
  GI50: 4.75 µM
  TGI: 36 µM
KM12 colon
  GI50: 6.84 µM
  TGI: 33.9 µM
SNB-75 CNS
  GI50: 12.5 µM
  TGI: 25.8 µM
SK-MEL-5 melanoma
  GI50: 8.09 µM
  TGI: 20.5 µM
MOLT-4 leukemia
  GI50: 3 µM
  TGI: 12.1 µM
OVCAR-4 ovarian
  GI50: 9.45 µM
  TGI: 37.9 µM
OVCAR-5 ovarian
  GI50: 20.6 µM
  TGI: 49.7 µM
HCC-2998 colon
  GI50: 8.49 µM
  TGI: 22.3 µM
HS 578T breast
  GI50: 4.6 µM
  TGI: 20.1 µM
SK-OV-3 ovarian
  GI50: 7.11 µM
  TGI: 28.5 µM
HOP-62 NSCLC
  GI50: 7.97 µM
  TGI: 42.6 µM
CCRF-CEM leukemia
  TGI: 0.0412 µM
TK-10 renal
  GI50: 5.86 µM
  TGI: 55.5 µM
HL-60(TB) leukemia
  GI50: 3.53 µM
  TGI: 25.2 µM
MDA-MB-435
  GI50: 6.9 µM
  TGI: 23 µM
OVCAR-3 ovarian
  GI50: 8.71 µM
  TGI: 51 µM
CAKI-1 renal
  GI50: 14.5 µM
  TGI: > 100 µM
ACHN renal
  GI50: 4.48 µM
  TGI: 25.8 µM
NCI-H226 lung
  GI50: 8.65 µM
  TGI: 47.1 µM
IGROV1 ovarian
  GI50: 4.82 µM
  TGI: 26 µM
MCF7 breast
  GI50: 4.07 µM
  TGI: 16.1 µM
M14 melanoma
  GI50: 11.3 µM
  TGI: 32.5 µM
DU-145 prostate
  GI50: 4.35 µM
  TGI: 17.9 µM
HCT-15 colon
  GI50: 5.04 µM
  TGI: 25 µM
HT29 colon
  GI50: 3.97 µM
  TGI: 19.6 µM
U251 CNS
  GI50: 7.87 µM
  TGI: 24.7 µM
T-47D breast
  GI50: 4.72 µM
  TGI: 26.7 µM
UACC-62 melanoma
  GI50: 10.1 µM
  TGI: 23.5 µM
HCT-116 colon
  GI50: 4.16 µM
  TGI: 23.7 µM
PC-3 prostate
  GI50: 3.4 µM
  TGI: 19.5 µM
MALME-3M melanoma
  GI50: 3.73 µM
  TGI: 17.6 µM
A498 renal
  GI50: 3.28 µM
  TGI: 13.8 µM
SF-539 CNS
  GI50: 4.03 µM
  TGI: 15.3 µM
SN12C renal
  GI50: 5.66 µM
  TGI: 34 µM
SF-268 CNS
  GI50: 5.81 µM
  TGI: 27.7 µM
NCI/ADR-RES ovarian
  GI50: 9 µM
  TGI: > 100 µM
SW-620 colon
  GI50: 3.61 µM
  TGI: 15.1 µM
SK-MEL-28 melanoma
  GI50: 11.8 µM
  TGI: 25.3 µM
UACC-257 melanoma
  GI50: 7.88 µM
  TGI: 27 µM
OVCAR-8 ovarian
  GI50: 6.66 µM
  TGI: > 100 µM
LOX IMVI melanoma
  GI50: 4.35 µM
  TGI: 14.9 µM
SF-295 CNS
  GI50: 5.99 µM
  TGI: 24.6 µM
EKVX NSCLC
  GI50: 6.49 µM
  TGI: 32.2 µM
COLO 205 colon
  GI50: 2.43 µM
  TGI: 10.3 µM
NCI-H460 lung
  GI50: 3.37 µM
  TGI: 13.3 µM
786-0 renal
  GI50: 5.39 µM
  TGI: 29.2 µM
K-562 leukemia
  GI50: 5.22 µM
  TGI: > 100 µM
UO-31 renal
  GI50: 4.91 µM
  TGI: 46.9 µM
MDA-MB-231 breast
  GI50: 6.47 µM
  TGI: 27.2 µM
SNB-19 CNS
  GI50: 6.88 µM
  TGI: 34.8 µM
NCI-H522 lung
  GI50: 4.6 µM
  TGI: 18.3 µM

## Cc1cn2c(/C=N/N=C(N)N)c(-c3ccccn3)nc2s1
SK-MEL-2 melanoma
  GI50: 14 µM
  TGI: 48.1 µM
RXF 393 renal
  GI50: 5.9 µM
  TGI: 18.1 µM
BT-549 breast
  GI50: 7.69 µM
  TGI: 25.9 µM
A549 NSCLC
  GI50: 21.1 µM
  TGI: > 70.1 µM
KM12 colon
  GI50: 15.4 µM
  TGI: 33.2 µM
SNB-75 CNS
  GI50: 7.66 µM
  TGI: 19.3 µM
SK-MEL-5 melanoma
  GI50: 7.95 µM
  TGI: 25.8 µM
MOLT-4 leukemia
  GI50: 8.67 µM
  TGI: > 100 µM
OVCAR-4 ovarian
  GI50: 15.2 µM
  TGI: 40.1 µM
OVCAR-5 ovarian
  GI50: 22.3 µM
  TGI: 46 µM
HS 578T breast
  GI50: 19.5 µM
  TGI: 55.6 µM
SK-OV-3 ovarian
  GI50: 26.8 µM
  TGI: > 65 µM
HOP-62 NSCLC
  GI50: 10.5 µM
  TGI: 26.9 µM
CCRF-CEM leukemia
  GI50: 12.3 µM
  TGI: > 100 µM
TK-10 renal
  GI50: 16.1 µM
  TGI: 32.8 µM
HL-60(TB) leukemia
  GI50: 4.56 µM
  TGI: > 100 µM
MDA-MB-435
  GI50: 19 µM
  TGI: 41.6 µM
OVCAR-3 ovarian
  GI50: 17.3 µM
  TGI: 34.2 µM
CAKI-1 renal
  GI50: 20.8 µM
  TGI: 41.7 µM
ACHN renal
  GI50: 21.8 µM
  TGI: 51.7 µM
NCI-H23 lung
  GI50: 6.65 µM
  TGI: 16.7 µM
NCI-H226 lung
  GI50: 25.1 µM
  TGI: > 58.2 µM
IGROV1 ovarian
  GI50: 16 µM
  TGI: > 100 µM
MCF7 breast
  GI50: 10.2 µM
  TGI: > 68.2 µM
M14 melanoma
  GI50: 19.6 µM
  TGI: > 52.1 µM
DU-145 prostate
  GI50: 10.5 µM
  TGI: 37.7 µM
HCT-15 colon
  GI50: 19.5 µM
  TGI: 39.1 µM
HT29 colon
  GI50: 19.4 µM
  TGI: > 92.8 µM
U251 CNS
  GI50: 19.1 µM
  TGI: 45.1 µM
T-47D breast
  GI50: 7.59 µM
  TGI: 18.2 µM
UACC-62 melanoma
  GI50: 15.9 µM
  TGI: 31.6 µM
HCT-116 colon
  GI50: 6.29 µM
  TGI: 25.8 µM
PC-3 prostate
  GI50: 15.6 µM
  TGI: 53.9 µM
MALME-3M melanoma
  GI50: 21.8 µM
  TGI: 44.4 µM
A498 renal
  GI50: 17.8 µM
  TGI: 34 µM
SF-539 CNS
  GI50: 3.35 µM
  TGI: 14.4 µM
SN12C renal
  GI50: 14.7 µM
  TGI: 29.5 µM
SF-268 CNS
  GI50: 8.62 µM
  TGI: 45.4 µM
NCI/ADR-RES ovarian
  GI50: > 27.1 µM
  TGI: > 67.8 µM
SW-620 colon
  GI50: 7.61 µM
  TGI: 25 µM
SK-MEL-28 melanoma
  GI50: 11.6 µM
  TGI: 36.9 µM
UACC-257 melanoma
  GI50: 7.78 µM
  TGI: 17.9 µM
OVCAR-8 ovarian
  GI50: 13.9 µM
  TGI: > 56.2 µM
RPMI-8226 leukemia
  GI50: 7.53 µM
  TGI: > 84.7 µM
LOX IMVI melanoma
  GI50: 20.1 µM
  TGI: 46.1 µM
HOP-92 NSCLC
  GI50: 7.35 µM
  TGI: 16.9 µM
SF-295 CNS
  GI50: 17.1 µM
  TGI: 37.1 µM
EKVX NSCLC
  GI50: 8.37 µM
  TGI: 25.8 µM
COLO 205 colon
  GI50: 11.3 µM
  TGI: 42 µM
NCI-H460 lung
  GI50: 14.9 µM
  TGI: > 75.6 µM
786-0 renal
  GI50: 6.56 µM
  TGI: 17.9 µM
K-562 leukemia
  GI50: 19.5 µM
  TGI: > 100 µM
UO-31 renal
  GI50: 7.98 µM
  TGI: > 20.5 µM
MDA-MB-231 breast
  GI50: 17.2 µM
  TGI: 39.6 µM
SNB-19 CNS
  GI50: 15.1 µM
  TGI: 35.8 µM
NCI-H522 lung
  GI50: 14.2 µM
  TGI: 53.3 µM
